Results from BindingDB's records for doi:10.1007/s00044-011-9882-z (n/a, 2012).

Target: Transcription factor Sp1 (Homo sapiens, UniProt P08047)
Assay: Inhibition of Sp1 (unknown origin) by luciferase reporter gene assay

Transcription factor Sp1, sequence (P08047 whole entry): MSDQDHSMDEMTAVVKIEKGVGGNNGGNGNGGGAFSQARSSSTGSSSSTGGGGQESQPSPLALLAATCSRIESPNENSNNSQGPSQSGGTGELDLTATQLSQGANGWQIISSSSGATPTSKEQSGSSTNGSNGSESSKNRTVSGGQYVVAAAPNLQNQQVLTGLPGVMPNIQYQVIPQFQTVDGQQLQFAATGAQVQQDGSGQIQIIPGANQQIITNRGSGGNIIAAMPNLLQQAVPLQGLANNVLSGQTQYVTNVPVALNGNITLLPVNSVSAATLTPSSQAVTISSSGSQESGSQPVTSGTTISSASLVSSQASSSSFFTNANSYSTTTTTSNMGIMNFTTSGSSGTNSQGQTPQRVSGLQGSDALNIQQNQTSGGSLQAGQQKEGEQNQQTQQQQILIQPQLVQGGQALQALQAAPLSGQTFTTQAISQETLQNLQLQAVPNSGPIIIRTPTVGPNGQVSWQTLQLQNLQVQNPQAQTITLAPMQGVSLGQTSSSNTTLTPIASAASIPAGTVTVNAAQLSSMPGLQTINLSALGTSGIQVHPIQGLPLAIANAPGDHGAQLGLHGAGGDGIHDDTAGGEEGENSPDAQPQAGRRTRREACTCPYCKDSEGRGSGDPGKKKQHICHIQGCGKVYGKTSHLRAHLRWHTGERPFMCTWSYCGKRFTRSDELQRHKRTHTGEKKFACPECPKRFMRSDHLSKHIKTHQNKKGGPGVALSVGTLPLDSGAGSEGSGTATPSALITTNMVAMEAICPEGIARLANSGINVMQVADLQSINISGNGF

`O=C(N/N=C/c1ccccc1)c1ccc(F)cc1` gave an IC50 of 57.7 µM.
In the case of `C=C1C(=O)O[C@H]2[C@H]1CC/C(C)=C/CC[C@@]1(C)O[C@@H]21` [PARTHENOLIDE], the IC50 is reported as 30.2 µM.
